Measurements reported in paper PMC11199504, “New hemisynthetic derivatives of sphaeropsidin phytotoxins triggering severe endoplasmic reticulum swelling in cancer cells” (Scientific Reports, 2024).
Like-named read-outs stand apart in the source and are kept apart here.

Assays:
[1] = tested on: A549; assay: MTT colorimetric assay, A549; type: cell-based; conditions: Homo sapiens, 72 h treatment, mean ± SEM of six replicates of one experiment (1: 7, 13: 6 independent experiments), resistant to apoptosis, read-out: IC50 determined by MTT assays, A549
Text: (§1) Cancer cell lines were obtained from either the European Collection of Cell Cultures (ECACC; Salisbury, UK) or the American Type Culture Collection (ATCC; Manassas, VA). The two glioma cell lines were the U373 (ECACC code 08061901) and Hs683 (ATCC HTB-138) cell lines. The carcinoma cell lines were the A549 non-small cell carcinoma cell line (ATCC code CCL 185) and the MCF-7 mammary breast carcinoma cell line (ATCC code HTB-22). The melanoma cell lines were the mouse B16F10 cells (ATCC code CRL-6475) and the human SKMEL-28 cells (ATCC code HTB-72). The ovarian cancer cell line A2780 and its cisplatin-resistant subline A2780cis were obtained from Sigma-Aldrich (St. Louis, MO, USA). Colon cancer HCT116 cells were obtained from ATCC (CCL-247) and the oxaliplatin-resistant subline HCT116/OxR established in the W. Berger lab[59]. The HeLa cell derivative KB-3-1 and the colchicine-selected, highly ABCB1-overexpressing subline KB-C-1 were generously donated by Dr. D. W. Shen, Bethesda, MD. RKOp53wt colon cancer cells together with the RKOp53KO (homozygous knock-out) subline[60] were generously provided by Dr. Vogelstein from John Hopkins University, Baltimore. The correct origin of all cell models was confirmed by STR during performance of the experiments. All cell lines were cultured in RPMI1640 culture medium supplemented with 10% heat-inactivated fetal bovine serum, 2% L-glutamine (0.6 mg/mL), 2% penicillin/streptomycin (200 IU/mL and 200 μg/mL) and 0.1 mg/mL gentamicin.
(§2) The MTT (3-(4,5-dimethylthiazol-2-yl)-2,5-diphenyl tetrazolium bromide) colorimetric assay has been conducted as described previously. Briefly, cells were seeded 24 h before their treatment with each compound for a period of 72 h. The concentrations tested ranged from 10 nM to 100 µM. Each assay was conducted in sextuplicates. The number of independent experiments is mentioned in the legend of the tables.

[2] = tested on: SKMEL-28; assay: MTT colorimetric assay, SKMEL-28; type: cell-based; conditions: Homo sapiens, SK-MEL-28; 72 h treatment; mean ± SEM; resistant to apoptosis; read-out: IC50 determined by MTT assays, SKMEL-28
Text: as §1, §2

[3] = tested on: U373; assay: MTT colorimetric assay, U373; type: cell-based; conditions: Homo sapiens, U373 MG; 72 h treatment; mean ± SEM; resistant to apoptosis; read-out: IC50 determined by MTT assays, U373
Text: as §1, §2

[4] = tested on: MCF7; assay: MTT colorimetric assay, MCF7; type: cell-based; conditions: Homo sapiens, 72 h treatment, mean ± SEM, sensitive to apoptosis, read-out: IC50 determined by MTT assays, MCF7
Text: as §1, §2

[5] = tested on: Hs683; assay: MTT colorimetric assay, Hs683; type: cell-based; conditions: Homo sapiens, Hs 683; 72 h treatment; mean ± SEM; sensitive to apoptosis; read-out: IC50 determined by MTT assays, Hs683
Text: as §1, §2

[6] = tested on: B16F10; assay: MTT colorimetric assay, B16F10; type: cell-based; conditions: Mus musculus, B16-F10; 72 h treatment; mean ± SEM; sensitive to apoptosis; read-out: IC50 determined by MTT assays, B16F10
Text: as §1, §2

[7] = tested on: A549, SKMEL-28, U373, MCF7, Hs683, B16F10; assay: MTT colorimetric assay, mean of the six cell lines; type: cell-based; conditions: 72 h, mean over the six cell lines; 72 h treatment; read-out: IC50 determined by MTT assays, Mean
Text: as §1, §2

[8] = tested on: SK-MEL-28 human melanoma and U373 glioblastoma cells; assay: ER swelling / vacuole origin (CellLight ER-GFP, brightfield, TEM); type: cell-based; conditions: SK-MEL-28 and U373 cells
Text: To decipher the origin of vacuoles, fluorescent probes staining different cellular compartments were used: the lysosomal Red DND-99 LysoTracker®, the glibenclamide Red ER tracker®, the green FM MitoTracker® that were all purchased from Lifes Technologies (Invitrogen, Belgium) and used according to manufacturer’s instructions. The CellLight ER-GFP (Thermofisher, Belgium) staining of the ER is based on the transfection of a plasmid coding for a fusion protein made of GFP fused to the ER signal sequence of calreticulin and the KDEL ER retention signal. Briefly, 6 × 10^4 cells were seeded on glass coverslips in 6 well plates. After a minimum of 24 h, cells were treated or not with the compounds of interest. Note that concentration and duration of the treatment were determined separately for each compound prior to the experiment on the basis of the apparition of marked morphological changes in phase contrast microscopy. Sixteen hours before the end of the experiment, 4 µL/well of the reagent were added to allow transfection and expression of the GFP-fused protein by the cells. Coverslips were then washed twice in PBS and mounted on slides without fixation step to take captions with the Axio.Imager.M2 microscope (Carl Zeiss, Belgium). To evaluate the cellular distribution of 13, the Axio.Imager.M2 was specifically equipped with an M340L4 excitation source (Thorlabs) and the pseudoconfocal Zeiss ZEN deconvolution system kindly provided for demo by Carl Zeiss (Belgium) to allow direct visualization of the compound 13 itself thanks to its intrinsic fluorescent properties.
For TEM, cells were fixed with glutaraldehyde 2.5% (EM grade, Electron Microscopy Sciences, EMS) at 4 °C overnight, washed tree times in cacodylate buffer (pH 7.4) and postfixed 1 h at room temperature in 1% OsO4, (EMS), 1.5% potassium ferrocyanide (Sigma-Aldrich) in 0.15 M cacodylate buffer. This was immediately followed by a second incubation in 1% OsO4 for 1 h at room temperature. After washing in distilled water, samples were stained with 1% uranyl acetate (EMS) and serially dehydrated in increasing ethanol concentrations. Samples were then embedded in epoxy resin (Agar 100 resin, Agar Scientific Ltd) and left to polymerize for 2 days at 60 °C. Ultrathin sections (50–70 nm thick) were collected with a Leica UC6 ultra-microtome on formvar-carbon-coated copper grids and further stained with uranyl acetate and lead citrate by standard procedures. Observations were made on a Tecnai 10 transmission electron microscope (FEI) and images were captured with a Veleta camera and processed with SIS iTEM software (Olympus).

[9] = tested on: A2780; assay: MTT assay, A2780 (parental sensitive); type: cell-based; conditions: Homo sapiens, A2780; 72 h treatment; ± standard deviation; parental sensitive model; read-out: IC50 determined by MTT assays, A2780
Text: as §1, §2
(§3) SI Table 1: IC50 determined by MTT assays. Mean concentration (± standard deviation) in µM required to
(§4) reduce the viability of cells by 50% after a 72 h treatment relative to the control.
(§5) Parental sensitive models Drug-resistant models

[10] = tested on: Hct116; assay: MTT assay, Hct116 (parental sensitive); type: cell-based; conditions: Homo sapiens, HCT-116; 72 h treatment; ± standard deviation; parental sensitive model; read-out: IC50 determined by MTT assays, Hct116
Text: as §1, §2, §3, §4, §5

[11] = tested on: RKO/P53wt; assay: MTT assay, RKO/P53wt (parental sensitive); type: cell-based; conditions: 72 h treatment; ± standard deviation; parental sensitive model; read-out: IC50 determined by MTT assays, RKO/P53wt
Text: as §1, §2, §3, §4, §5

[12] = tested on: KB-3-1; assay: MTT assay, KB-3-1 (parental sensitive); type: cell-based; conditions: Homo sapiens, KB 3-1; 72 h treatment; ± standard deviation; parental sensitive model; read-out: IC50 determined by MTT assays, KB-3-1
Text: as §1, §2, §3, §4, §5

[13] = tested on: Parental sensitive models; assay: MTT assay, mean of parental sensitive models; type: cell-based; conditions: 72 h treatment; read-out: IC50 determined by MTT assays, mean of parental sensitive models
Text: as §1, §2, §3, §4, §5

[14] = tested on: A2780R; assay: MTT assay, A2780R (cisplatin-resistant); type: cell-based; conditions: 72 h treatment; ± standard deviation; drug-resistant model; read-out: IC50 determined by MTT assays, A2780R
Text: as §1, §2, §3, §4, §5

[15] = tested on: Hct116/OxR; assay: MTT assay, Hct116/OxR (oxaliplatin-resistant); type: cell-based; conditions: Homo sapiens, HCT-116; 72 h treatment; ± standard deviation; drug-resistant model; read-out: IC50 determined by MTT assays, Hct116/OxR
Text: as §1, §2, §3, §4, §5

[16] = tested on: RKO/p53ko; assay: MTT assay, RKO/p53ko; type: cell-based; conditions: 72 h treatment; ± standard deviation; drug-resistant model; read-out: IC50 determined by MTT assays, RKO/p53ko
Text: as §1, §2, §3, §4, §5

[17] = tested on: KB-C-1; assay: MTT assay, KB-C-1 (ABCB1-overexpressing); type: cell-based; conditions: KBC-1; 72 h treatment; ± standard deviation; drug-resistant model; read-out: IC50 determined by MTT assays, KB-C-1
Text: as §1, §2, §3, §4, §5

[18] = tested on: Drug-resistant models; assay: MTT assay, mean of drug-resistant models; type: cell-based; conditions: 72 h treatment; read-out: IC50 determined by MTT assays, mean of drug-resistant models
Text: as §1, §2, §3, §4, §5

[19] = target: T1, human TopIIa (Homo sapiens, UniProt P11388); assay: Cell-free decatenation assay; type: biochemical; conditions: at 500 µM, read-out: TopoIIa inhibition
T1 construct: purchased TopoGen (Port Orange, FL, USA)
Method: The topoisomerase (Top) activity assay kit, including kinetoplast DNA (kDNA and recombinant human TopIIa enzyme, was obtained from TopoGen (Port Orange, FL, USA), agarose from PeqLab (Erlangen, Germany), 50 × TAE buffer from Roth (Karlsruhe, Germany) and ethidium bromide solution (10 mg/mL) from Sigma-Aldrich (Taufkirchen, Germany). Decatenation assays were performed as described previously[62] with slight modifications according to the manufacturer’s protocol. 100 µM of the recently described dual topoisomerase poison P8-D6 served as a positive control, and 5% DMSO as a solvent control. Briefly, the compounds were dissolved in DMSO and diluted to 20× the concentration to be tested. 1 µL of the resulting stock solutions were mixed with 18 µL of a buffer containing 200 ng kDNA and 1 mM ATP. Subsequently, 1 µL of a 1u/µL dilution of TopIIa enzyme was added and incubated at 37 °C for 30 min. Afterwards, the reaction was stopped by addition of Stop buffer, and electrophoresis was carried out on a 1% agarose gel in TAE buffer. The gel was stained with 0.5 µg/mL ethidium bromide, washed with water, and fluorescence images were captured with the LAS4000 system (Fujifilm, Duesseldorf, Germany). All steps were carried out on ice.

[20] = tested on: A549; design: method as in doi:10.1016/j.phytol.2012.08.011; conditions: 72 h treatment; read-out: IC50 determined by MTT assays, A549; cited from earlier work
[21] = tested on: SKMEL-28; design: method as in doi:10.1016/j.phytol.2012.08.011; conditions: 72 h treatment; read-out: IC50 determined by MTT assays, SKMEL-28; cited from earlier work
[22] = tested on: U373; design: method as in doi:10.1016/j.phytol.2012.08.011; conditions: 72 h treatment; read-out: IC50 determined by MTT assays, U373; cited from earlier work
[23] = tested on: Hs683; design: method as in doi:10.1016/j.phytol.2012.08.011; conditions: 72 h treatment; read-out: IC50 determined by MTT assays, Hs683; cited from earlier work
[24] = tested on: B16F10; design: method as in doi:10.1016/j.phytol.2012.08.011; conditions: 72 h treatment; read-out: IC50 determined by MTT assays, B16F10; cited from earlier work
[25] = tested on: A549, SKMEL-28, U373, MCF7, Hs683, B16F10; design: method as in doi:10.1016/j.phytol.2012.08.011; conditions: mean over cell lines (MCF7 not available); read-out: IC50 determined by MTT assays, Mean; cited from earlier work

T1 sequence (P11388 whole entry): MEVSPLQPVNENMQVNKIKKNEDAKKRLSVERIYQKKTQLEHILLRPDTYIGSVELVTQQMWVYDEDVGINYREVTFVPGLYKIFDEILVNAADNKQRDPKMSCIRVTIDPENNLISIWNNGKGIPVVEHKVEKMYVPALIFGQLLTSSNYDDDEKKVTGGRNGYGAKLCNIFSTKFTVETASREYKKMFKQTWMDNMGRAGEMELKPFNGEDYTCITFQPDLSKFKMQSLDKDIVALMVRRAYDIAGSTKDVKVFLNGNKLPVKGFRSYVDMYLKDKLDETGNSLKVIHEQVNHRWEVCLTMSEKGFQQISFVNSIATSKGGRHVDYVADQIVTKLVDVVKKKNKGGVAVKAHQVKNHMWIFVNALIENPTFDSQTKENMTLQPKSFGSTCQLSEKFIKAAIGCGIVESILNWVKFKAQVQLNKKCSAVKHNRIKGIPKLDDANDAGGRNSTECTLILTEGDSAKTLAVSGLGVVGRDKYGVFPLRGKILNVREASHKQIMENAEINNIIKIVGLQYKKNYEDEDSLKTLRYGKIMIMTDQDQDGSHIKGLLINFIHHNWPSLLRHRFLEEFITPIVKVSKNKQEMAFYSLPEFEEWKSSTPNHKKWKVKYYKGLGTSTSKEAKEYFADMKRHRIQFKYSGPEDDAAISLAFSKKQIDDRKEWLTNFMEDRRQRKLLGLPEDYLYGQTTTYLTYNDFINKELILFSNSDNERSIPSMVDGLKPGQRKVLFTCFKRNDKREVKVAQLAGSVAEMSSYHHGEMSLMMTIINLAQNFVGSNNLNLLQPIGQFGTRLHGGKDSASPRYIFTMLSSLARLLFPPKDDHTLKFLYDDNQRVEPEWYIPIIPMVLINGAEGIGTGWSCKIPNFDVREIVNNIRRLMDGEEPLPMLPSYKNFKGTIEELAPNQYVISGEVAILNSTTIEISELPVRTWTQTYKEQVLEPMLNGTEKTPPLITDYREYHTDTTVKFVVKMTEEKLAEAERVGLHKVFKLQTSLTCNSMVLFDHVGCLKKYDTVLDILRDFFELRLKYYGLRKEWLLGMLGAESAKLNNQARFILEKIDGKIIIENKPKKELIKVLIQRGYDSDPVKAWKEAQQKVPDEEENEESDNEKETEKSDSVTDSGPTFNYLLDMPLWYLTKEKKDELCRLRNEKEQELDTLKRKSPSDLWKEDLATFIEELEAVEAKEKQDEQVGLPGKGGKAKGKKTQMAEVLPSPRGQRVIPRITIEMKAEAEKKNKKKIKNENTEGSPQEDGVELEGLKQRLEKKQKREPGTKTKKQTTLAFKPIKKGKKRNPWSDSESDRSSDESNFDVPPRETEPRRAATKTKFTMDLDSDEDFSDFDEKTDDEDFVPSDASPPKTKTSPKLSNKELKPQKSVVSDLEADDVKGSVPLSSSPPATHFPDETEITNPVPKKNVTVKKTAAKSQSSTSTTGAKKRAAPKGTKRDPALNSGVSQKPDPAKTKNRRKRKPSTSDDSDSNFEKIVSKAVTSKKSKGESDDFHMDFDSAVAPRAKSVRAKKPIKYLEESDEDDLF

Compound	IC50 [1]	IC50 [2]	IC50 [3]	IC50 [4]	IC50 [5]	IC50 [6]	IC50 [7]	ER swelling / ER-derived vacuolization [8]	also measured
CC1(C=CCCOc2cccc3ccccc23)C=C2C(=O)C3(O)OC(=O)C4(CCCC(C)(C)C34)C2(O)CC1 (stereo not shown) [Compound 26]	2.05 ± 0.2 µM	2.46 ± 0.08 µM	2.84 ± 0.12 µM	1300 ± 110 nM	3.1 ± 0.23 µM	1.08 ± 0.14 µM	2.14 ± 0.33 µM	induction of ER-derived vacuolization	–
C=C[C@]1(C)C=C2[C@@H](O)[C@@]3(O)OC(=O)[C@@]4(CCCC(C)(C)[C@H]34)[C@@]2(O)CC1 [Compound 15, sphaeropsidin B, reference compound]	44.8 ± 0.54 µM	59.3 ± 4.51 µM	37.8 ± 1.5 µM	84500 ± 8290 nM	43.1 ± 1.07 µM	41.7 ± 1.49 µM	51.9 ± 7.19 µM	–	IC50 [9]: > 100 µM; IC50 [10]: > 100 µM; IC50 [11]: > 100 µM; IC50 [12]: > 100 µM; IC50 [13]: > 100 µM; IC50 [14]: > 100 µM; IC50 [15]: > 100 µM; IC50 [16]: > 100 µM; IC50 [17]: > 100 µM; IC50 [18]: > 100 µM; inhibition at 500 µM [19]: ~50%
C=CC1(C)C=C2C(=O)C3(OC(C)=O)OC(=O)C4(CCCC(C)(C)C34)C2(O)CC1 (stereo not shown) [Compound 2]	–	–	–	–	–	–	–	–	IC50 [20]: 2290 ± 130 nM; IC50 [21]: 2680 ± 40 nM; IC50 [22]: 950 ± 20 nM; IC50 [23]: 3.76 ± 0.04 µM; IC50 [24]: 1560 ± 160 nM; IC50 [25]: 2250 ± 480 nM
CC1(C=CCOCc2ccc3ccc4cccc5ccc2c3c45)C=C2C(=O)C3(O)OC(=O)C4(CCCC(C)(C)C34)C2(O)CC1 (stereo not shown) [Compound 25]	3.47 ± 3.28 µM	3.32 ± 0.3 µM	3.93 ± 0.1 µM	2710 ± 140 nM	3.32 ± 0.23 µM	3.28 ± 0.3 µM	3.34 ± 0.16 µM	induction of ER-derived vacuolization	–
